The values that follow are results of earlier work, collected in patent US20010000228A1, “Use of a modified baculovirus containing exogenous nucleic acid for the manufacture of a medicament for delivering said nucleic acid to the hepatocytes” (IMPERIAL COLLEGE INNOVATIONS LIMITED, priority 1997, published 2001).

The subject of the data set is HBV. The conditions noted are these: therapy against HBV.

As for Interferon α, the “cases in which therapy is effective” value was “around 30%”.
